Experimental data published in US5445937A, “Detection of Alzheimer's disease and other diseases using an improved photoaffinity labeling method” (The University of Kentucky Research Foundation, priority 1993, dated 1995).
Like-named read-outs stand apart in the source and are kept apart here.

Experiments:
[1] = target: T1, Purified GS (glutamine synthetase) (Homo sapiens, UniProt P15104); assay: Photoaffinity labeling (photoinsertion) of purified glutamine synthetase; format: binding, sheep
T1 construct: purified from sheep brain; purchased Sigma; host or cells: sheep brain
T1 sequence (P15104 whole entry): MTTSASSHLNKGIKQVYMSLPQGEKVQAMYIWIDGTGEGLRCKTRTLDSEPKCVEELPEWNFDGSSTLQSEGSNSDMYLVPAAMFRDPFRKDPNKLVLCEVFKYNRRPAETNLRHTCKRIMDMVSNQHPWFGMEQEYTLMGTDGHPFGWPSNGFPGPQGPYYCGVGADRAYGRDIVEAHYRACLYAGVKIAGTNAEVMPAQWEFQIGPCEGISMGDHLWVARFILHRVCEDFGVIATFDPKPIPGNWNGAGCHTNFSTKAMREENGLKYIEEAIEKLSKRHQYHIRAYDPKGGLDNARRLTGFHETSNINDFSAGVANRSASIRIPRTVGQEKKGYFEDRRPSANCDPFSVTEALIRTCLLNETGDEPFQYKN
Method: (§1) In each experiment, photoprobe was added to the cerebral spinal fluid sample and vortexed for 6 seconds. Each treated sample was then allowed to mix for an additional 24 seconds at room temperature before exposure to ultraviolet (UV) light.
(§2) The treated samples were placed on ice and exposed to UV light for 45 seconds. The UV light source, a hand-held UV lamp with an intensity of 6200 μW/cm^2, was positioned 1 cm from the sample. The UV activation of the photoprobe labeled samples was always conducted at 0° C.
(§3) Each sample was fractionated by 10% SDS-PAGE, run over a period of 21/2 to 3 hours, with constant amperage of 35 mA and an initial voltage of 140 volts. Since all of the proteins were very well separated on a 10% gel, a gradient was not necessary.
(§4) The quantity of protein, as well as the amount of the radioactivity incorporated into each protein, was quantified by densitometric scans of the exposed X-ray film, or of the stained gel, or by liquid scintillation spectrometry of the protein band excised from the gel. Significance was determined by analysis of variance at a rho level below […].
(§5) 1. Purified GS (purchased from Sigma, purified from sheep brain) comigrated on SDS-PAGE identically with the 42,000 Mr protein in the cerebral spinal fluid from Alzheimer's disease patients.
(§6) 2. Purified GS and the 42 kD protein found in the cerebral spinal fluid from Alzheimer's disease patients had the same approximate saturation and Kd values for binding ATP, 8-azido-ATP and 2-azido-ATP. […] Therefore, both GS and the 42 kD protein in the cerebral spinal fluid from Alzheimer's disease patients had the same nucleotide binding properties.
(§7) Purified glutamine synthetase from sheep brain was photolabeled by the above-described method, but under various ionic conditions.

[2] = target: T2, 42 kD protein found in the cerebral spinal fluid from Alzheimer's disease patients (Homo sapiens, UniProt P15104); assay: Photoaffinity labeling (photoinsertion) of the 42 kD protein in cerebral spinal fluid from Alzheimer's disease patients; format: binding
T2 construct: 42 kD protein found in the cerebral spinal fluid from Alzheimer's disease patients; from tissue; host or cells: cerebral spinal fluid of Alzheimer's disease patients
T2 sequence (P15104 2-373 limits assumed): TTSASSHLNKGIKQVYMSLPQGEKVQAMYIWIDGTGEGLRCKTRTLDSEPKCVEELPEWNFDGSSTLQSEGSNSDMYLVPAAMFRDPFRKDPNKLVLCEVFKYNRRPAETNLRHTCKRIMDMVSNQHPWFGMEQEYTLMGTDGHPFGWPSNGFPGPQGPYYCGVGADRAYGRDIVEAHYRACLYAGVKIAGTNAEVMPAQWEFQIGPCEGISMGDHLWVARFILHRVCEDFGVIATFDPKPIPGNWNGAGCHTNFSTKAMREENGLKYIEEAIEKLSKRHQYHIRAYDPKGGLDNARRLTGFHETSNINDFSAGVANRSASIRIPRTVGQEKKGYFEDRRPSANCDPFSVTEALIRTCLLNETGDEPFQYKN
Method: Each assay was performed on 15 μl of cerebral spinal fluid. Although the amount of cerebral spinal fluid tested remained constant for each experiment, the protein concentration of each sample varied to some degree.
Each cerebral spinal fluid sample was photolabeled with [^32 P]8N3 ATP to identify the 42,000 Mr protein. The cerebral spinal fluid sample was comprised of cerebral spinal fluid, buffer, and water. The photoprobes used in each experiment were prepared by the inventor according to the procedures disclosed by Potter and Haley in Meth. in Enzymol., 91:613-633 (1983). Probes were also available commercially through ICN Radiochemicals 2727 Campus Drive, Irvine, Calif. 92715.
as §1, §2, §3, §4, §6

glutamine synthetase = assay: Enzymatic activity of glutamine synthetase; format: biochemical, sheep; conditions: 10 μM
[3] = tested on: T3, Purified GS (glutamine synthetase); assay: Photoaffinity labeling (photoinsertion) of purified glutamine synthetase; format: binding, sheep; conditions: purified GS
T3 construct: purified from sheep brain; purchased Sigma; host or cells: sheep brain
T3 sequence (P15104 whole entry): as the sequence (P15104 whole entry) above
Method: as §1, §2, §3, §4, §5, §6, §7

In the case of O=C(O)O [ammonium bicarbonate], the “enhancement of binding/photolabeling by [32P]2N3 ATP” value ([1]; purified GS, ligand added at 100 mM) is reported as “about 5 fold” and the “enhancement of binding/photolabeling by [32P]2N3 ATP” value ([2]; 42 kD CSF protein, ligand added at 100 mM) is reported as “about 5 fold”.

Nc1ncnc2c1ncn2[C@@H]1O[C@H](COP(=O)(O)OP(=O)(O)OP(=O)(O)O)[C@@H](O)[C@H]1O [ATP, adenosine triphosphate] was tested, and the “effect on photolabeling with 8- or 2-azido-ATP” value ([1]; purified GS, competition by natural nucleotide) was “decreased the photolabeling” and the “effect on photolabeling with 8- or 2-azido-ATP” value ([2]; 42 kD protein in AD CSF, competition by natural nucleotide) was “decreased the photolabeling”.

Compound [N-]=[N+]=Nc1nc2c(N)ncnc2n1[C@@H]1O[C@H](COP(=O)(O)OP(=O)(O)OP(=O)(O)O)[C@@H](O)[C@H]1O [8-azido-ATP, 8-azidoadenosine 5'-triphosphate] has a saturation of photoinsertion ([1]; purified GS) of 40 to 50 µM, a Kd [2] of roughly 10 µM and a saturation of photoinsertion ([2]; 42 kD protein in AD CSF) of 40 to 50 µM.

For [Cl][Mn][Cl] [MnCl2], the “effect on photolabeling of GS by 8N3 ATP photolabel” value ([1]; purified sheep brain GS, 10 μM, FIG. 5) was “increases dramatically” and the “effect on enzymatic activity of glutamine synthetase” value (glutamine synthetase) was “increases the enzymatic activity”.

With [N-]=[N+]=Nc1nc(N)c2ncn([C@@H]3O[C@H](COP(=O)(O)OP(=O)(O)OP(=O)(O)O)[C@@H](O)[C@H]3O)c2n1 [2-azido-ATP, 2-azidoadenosine 5'-triphosphate] the saturation of photoinsertion ([1]; purified GS) was 40 to 50 µM, the “amount of photo-incorporation on a mole to mole basis relative to [γ32P]8N3 ATP” value [3] was “greater” and the “amount of photo-incorporation on a mole to mole basis relative to [γ32P]8N3 ATP” value ([2]; 42 kD protein in AD CSF) was “greater”. For the same compound, the saturation of photoinsertion ([2]; 42 kD protein in AD CSF) was 40 to 50 µM and the Kd ([2]; 42 kD protein in AD CSF, approximate Kd from photoinsertion, read-out: half maximal photoinsertion) was roughly 10 µM.
